Activity calls are given as the source filed them.
Tests used:
Format in all cases: functional, organism-based
Salmonella typhimurium = assay: Antibacterial activity against Salmonella typhimurium ATCC 51812 assessed as growth inhibition at 1 mg/ml after 24 hrs by agar diffusion method; conditions: Salmonella enterica subsp. enterica serovar Typhimurium
Enterococcus faecalis = assay: Antibacterial activity against Enterococcus faecalis ATCC 14506 assessed as growth inhibition at 1 mg/ml after 24 hrs by agar diffusion method
[1] = test system: Staphylococcus epidermidis; assay: Antibacterial activity against Staphylococcus epidermidis ATCC 12228 assessed as growth inhibition at 1 mg/ml after 24 hrs by agar diffusion method
Staphylococcus aureus = assay: Antibacterial activity against methicillin-resistant Staphylococcus aureus ATCC 43300 assessed as growth inhibition at 1 mg/ml after 24 hrs by agar diffusion method

Measured: growth inhibition (GI)

Cc1cc(C)n2nc(N3CCCC3)c(C#N)c2n1
inactive: all assays above

N#Cc1c(N)nc2c(C#N)c(N3CCOCC3)nn2c1N1CCCCC1
inactive: all assays above

CC(=O)c1nnc2c(C#N)c(N3CCCC3)nn2c1C
inactive: all assays above

N#Cc1nnc2c(C#N)c(N3CCCC3)nn2c1N
inactive: all assays above

CSc1c(C#N)c(N)nc2c(C#N)c(N3CCCC3)nn12
inactive: all assays above

N#Cc1c(N)nc2c(C#N)c(N3CCCC3)nn2c1N1CCCCC1
inactive: all assays above

Cc1cc(C)n2nc(N3CCOCC3)c(C#N)c2n1
inactive: all assays above

Cc1cc(O)n2nc(N3CCCCC3)c(C#N)c2n1
inactive: all assays above

Cc1cc(O)n2nc(N3CCCC3)c(C#N)c2n1
inactive: all assays above

CSc1c(C#N)c(N)nc2c(C#N)c(N3CCOCC3)nn12
inactive: all assays above

N#Cc1c(N)nc2c(C#N)c(N3CCOCC3)nn2c1N1CCOCC1
inactive: all assays above

CC(=O)c1nnc2c(C#N)c(N3CCOCC3)nn2c1C
inactive: all assays above

CC(=O)n1nc(N2CCOCC2)c(C#N)c1N
inactive: all assays above

N#Cc1c(N)nc2c(C#N)c(N3CCCC3)nn2c1N1CCOCC1
inactive: all assays above

N#Cc1nnc2c(C#N)c(N3CCOCC3)nn2c1N
inactive: all assays above

From ChEMBL document CHEMBL2390874, “Synthesis, antibacterial activity and cytotoxicity of new fused pyrazolo[1,5-a]pyrimidine and pyrazolo[5,1-c][1,2,4]triazine derivatives from new 5-aminopyrazoles” (Eur J Med Chem, 2013)
